In patent publication US20180201592A1, “2-AMINO-1,3,4-THIADIAZINE AND 2-AMINO-1,3,4-OXADIAZINE BASED ANTIFUNGAL AGENTS” (F2G Limited, priority 2015, published 2018):

What was measured:
Conditions in all cases: banded MIC grade
[1] = system: Aspergillus fumigatus; test: Minimum inhibitory concentration, YAG medium; type: cell-based
In short: (§1)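 Broth microdilution in YAG medium; inoculum 1-2×10^4 cfu/mL; compound 50-0.05 mg/L in doubling steps, from DMSO stock. 24 h, 35° C. Read OD 485 nm; MIC = lowest conc. inhibiting growth >70% vs no-drug control, in mg/L.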

[2] = system: A. fumigatus 210; test: Minimum inhibitory concentration, YAG medium; type: cell-based, Aspergillus fumigatus
In short: as §1

[3] = system: A. terreus 49; test: Minimum inhibitory concentration, YAG medium; type: cell-based, Aspergillus terreus
In short: (§2)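 MIC in mg/L, from OD485 growth read-out after 24 hrs at 35° C in YAG medium with Aspergillus spores. Doubling dilutions in water made from a 5 mg/mL DMSO stock.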

[4] = system: Aspergillus flavus; test: Minimum inhibitory concentration, YAG medium; type: cell-based
In short: as §2

[5] = system: Aspergillus niger; test: Minimum inhibitory concentration, YAG medium; type: cell-based
In short: as §2

[6] = system: Aspergillus terreus; test: Minimum inhibitory concentration, YAG medium; type: cell-based
In short: as §2

[7] = system: C. albicans; test: Minimum inhibitory concentration, RPMI medium; type: cell-based
In short: (§3)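 Growth was measured by OD at 485 nm after 24-48 hrs at 35° C in RPMI 1640 medium. Compound was serially diluted twofold in water, starting from a 5 mg/mL DMSO stock solution.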

[8] = system: C. parapsilosis; test: Minimum inhibitory concentration, RPMI medium; type: cell-based
In short: as §3

[9] = system: C. tropicalis; test: Minimum inhibitory concentration, RPMI medium; type: cell-based
In short: as §3

SMILES	MIC grade, A. FUMIGATUS, YAG media [1]	MIC grade, A. FUMIGATUS 210, YAG media [2]	MIC grade, A. TERREUS 49, YAG media [3]	MIC grade, A. FLAVUS, YAG media [4]	MIC grade, A. NIGER, YAG media [5]	MIC grade, A. TERREUS, YAG media [6]	MIC grade, C. ALBICANS, RPMI media [7]	MIC grade, C. PARAPSILOSIS, RPMI media [8]	MIC grade, C. TROPICALIS, RPMI media [9]
NC1=NN=C(CCCCC(=O)Nc2ccccc2)CS1	3 (3: 0.2-1 mg/L)	3 (3: 0.2-1 mg/L)	2 (2: 1-5 mg/L)	3 (3: 0.2-1 mg/L)	2 (2: 1-5 mg/L)	2 (2: 1-5 mg/L)	1 (1: ≥20 mg/L)	2 (2: 5-20 mg/L)	1 (1: ≥20 mg/L)
NC1=NN=C(CCCCCN2C(=O)c3ccccc3C2=O)CS1	4 (4: <0.2 mg/L)	4 (4: <0.2 mg/L)	4 (4: <0.2 mg/L)	4 (4: <0.2 mg/L)	4 (4: <0.2 mg/L)	4 (4: <0.2 mg/L)	1 (1: ≥20 mg/L)	3 (3: 1-5 mg/L)	1 (1: ≥20 mg/L)
NC1=NN=C(CCCCCCOc2ccccc2)CS1	4 (4: <0.2 mg/L)	4 (4: <0.2 mg/L)	4 (4: <0.2 mg/L)	4 (4: <0.2 mg/L)	4 (4: <0.2 mg/L)	4 (4: <0.2 mg/L)	3 (3: 1-5 mg/L)	4 (4: <1 mg/L)	4 (4: <1 mg/L)
NC1=NN=C(CCCOc2ccccc2)CS1	4 (4: <0.2 mg/L)	4 (4: <0.2 mg/L)	3 (3: 0.2-1 mg/L)	4 (4: <0.2 mg/L)	4 (4: <0.2 mg/L)	4 (4: <0.2 mg/L)	2 (2: 5-20 mg/L)	4 (4: <1 mg/L)	3 (3: 1-5 mg/L)
CCCCc1ccc(COCCC2=NN=C(N)SC2)cc1	1 (1: ≥5 mg/L)	1 (1: ≥5 mg/L)	2 (2: 1-5 mg/L)	3 (3: 0.2-1 mg/L)	3 (3: 0.2-1 mg/L)	3 (3: 0.2-1 mg/L)	2 (2: 5-20 mg/L)	2 (2: 5-20 mg/L)	2 (2: 5-20 mg/L)
COc1cccc(C2=NN=C(N)SC2)c1	1 (1: ≥5 mg/L)	1 (1: ≥5 mg/L)	1 (1: ≥5 mg/L)	1 (1: ≥5 mg/L)	1 (1: ≥5 mg/L)	1 (1: ≥5 mg/L)	1 (1: ≥20 mg/L)	1 (1: ≥20 mg/L)	1 (1: ≥20 mg/L)
CCCCOc1ccc(C2=NN=C(N)SC2)cc1	3 (3: 0.2-1 mg/L)	3 (3: 0.2-1 mg/L)	1 (1: ≥5 mg/L)	3 (3: 0.2-1 mg/L)	3 (3: 0.2-1 mg/L)	3 (3: 0.2-1 mg/L)	1 (1: ≥20 mg/L)	1 (1: ≥20 mg/L)	1 (1: ≥20 mg/L)
NC1=NN=C2c3ccccc3CCC2S1 (stereo not drawn)	2 (2: 1-5 mg/L)	1 (1: ≥5 mg/L)	2 (2: 1-5 mg/L)	1 (1: ≥5 mg/L)	1 (1: ≥5 mg/L)	1 (1: ≥5 mg/L)	1 (1: ≥20 mg/L)	1 (1: ≥20 mg/L)	1 (1: ≥20 mg/L)
